{
  "source": "paper PMC3040809",
  "about": "(Amino Acids, 2010)",
  "key": {"[1]": {"details": "physiological pH; ref Lenzen and Munday [1991]; cited from earlier work"}, "hOGT": {"target": "T1, hOGT (Homo sapiens, UniProt O15294)", "T1 sequence (O15294 26-1036 isoform O15294-3)": "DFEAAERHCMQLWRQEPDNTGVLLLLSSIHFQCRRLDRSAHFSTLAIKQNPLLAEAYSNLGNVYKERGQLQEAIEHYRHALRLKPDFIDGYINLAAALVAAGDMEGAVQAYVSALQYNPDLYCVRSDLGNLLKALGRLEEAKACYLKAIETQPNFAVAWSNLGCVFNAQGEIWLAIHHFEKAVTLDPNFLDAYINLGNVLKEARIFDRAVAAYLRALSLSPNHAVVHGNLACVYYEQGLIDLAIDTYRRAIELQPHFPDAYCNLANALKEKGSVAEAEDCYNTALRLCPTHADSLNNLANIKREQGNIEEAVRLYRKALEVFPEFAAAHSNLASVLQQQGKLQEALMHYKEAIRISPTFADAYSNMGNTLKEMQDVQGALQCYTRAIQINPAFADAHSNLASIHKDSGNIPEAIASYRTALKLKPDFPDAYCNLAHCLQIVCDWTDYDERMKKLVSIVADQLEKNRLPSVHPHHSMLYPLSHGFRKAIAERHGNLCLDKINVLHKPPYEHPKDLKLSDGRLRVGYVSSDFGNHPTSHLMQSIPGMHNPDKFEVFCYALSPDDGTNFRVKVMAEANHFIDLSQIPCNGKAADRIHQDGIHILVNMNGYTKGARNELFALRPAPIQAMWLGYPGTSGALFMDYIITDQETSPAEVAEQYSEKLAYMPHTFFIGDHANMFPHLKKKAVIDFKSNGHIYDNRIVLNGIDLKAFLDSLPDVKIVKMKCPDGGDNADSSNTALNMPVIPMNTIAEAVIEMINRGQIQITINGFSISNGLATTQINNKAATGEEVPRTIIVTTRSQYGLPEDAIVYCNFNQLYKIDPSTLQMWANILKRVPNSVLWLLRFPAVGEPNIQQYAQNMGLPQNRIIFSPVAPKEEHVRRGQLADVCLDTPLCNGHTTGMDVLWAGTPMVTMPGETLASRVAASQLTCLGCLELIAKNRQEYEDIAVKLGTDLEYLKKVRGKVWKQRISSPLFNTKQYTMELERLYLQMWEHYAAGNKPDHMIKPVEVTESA", "format": "biochemical"}, "[2]": {"tested_on": "cellular levels of O-GlcNAcylation", "details": "ref Liu et al. [2005], [2006], [2007]; Noach et al. [2007]; Kang et al. [2008]; cited from earlier work"}},
  "data": [
    {"compound": "O=C1NC(=O)C(=O)C(=O)N1", "note": "[Alloxan]", "values": [
      {"measurement": "half-life time", "setting": "[1]", "result": 1.5, "unit": "min"},
      {"measurement": "IC50", "setting": "hOGT", "result": "18 ± 1", "unit": "µM"},
      {"measurement": "concentration required to decrease cellular levels of O-GlcNAcylation", "setting": "[2]", "result": "millimolar concentrations"}
    ]}
  ]
}
